Experiments:
[1] = system: myeloperoxidase enzyme (MPO); experiment: Myeloperoxidase activity in colon, TNBS colitis; assay type: in vivo, rat
Method: (§1) Animals were randomly divided into 3 groups: absolute control (no treatment, n = 12), 50% EtOH (ethanol enema, n = 12), and TNBS (10 mg dissolved in 50% Ethanol, n = 85). Colitis was assessed following Morris’ method. Animals fasted overnight and a TNBS enema was administered intracolonically (i.c.) with an 8cm long polyethylene canulla through the anus under mild anesthesia (Thiopental, i.p. 40 mg/kg). […] Animals were fasted for 5 h each day before i.c. treatments.
(§2) After 72 h of TNBS administration, euthanized animals (Thiopental, i.p. 100 mg/kg) were sacrificed and the last 8 cm portion of the colon was removed, gently opened, rinsed in physiological saline and photographed for further macroscopic analysis. Then, the colon segments were frozen in liquid nitrogen. Frozen colon tissues were powdered in liquid nitrogen by using a porcelain mortar and pestle and kept at −80 °C until used for biochemical measurements.
To further break the membranes, three freeze–thaw cycles were applied in liquid nitrogen and a 37 °C water bath. Homogenates then were centrifuged at 10,000× g for 15 min at 4 °C. […] The reaction was started with the addition of 10 µL 0.03% hydrogen peroxide (H2O2). After shaking for 90 s, MPO activity was assayed spectrophotometrically at 490 nm (Benchmark Microplate Reader, Bio-Rad Laboratories, Hercules, CA, USA). MPO activity was expressed as uU/mg protein.

IL-6 = IL-6 levels in colon by ELISA, TNBS colitis; assay type: in vivo, rat
Method: (§3) Male Wistar–Harlan rats (225–250 g) were purchased from Toxicoop Ltd. (Dunakeszi, Hungary) and housed in a room with acclimatized temperature under 12h day/night cycles with food and water ad libitum. Animals were randomly divided into 3 groups: absolute control (no treatment, n = 12), 50% EtOH (ethanol enema, n = 12), and TNBS (10 mg dissolved in 50% Ethanol, n = 85). Colitis was assessed following Morris’ method. Animals fasted overnight and a TNBS enema was administered intracolonically (i.c.) with an 8cm long polyethylene canulla through the anus under mild anesthesia (Thiopental, i.p. 40 mg/kg). […]
(§4) To determine the tissue levels of IL-6 and eNOS in the colon, we used double-antibody sandwich ELISA kits specific for rat IL-6 or eNOS. eNOS kit was purchased from MyBioSource (MBS721860; San Diego, CA, USA) and IL-6 was purchased from GenAsia Biotech Co., Ltd. (Shanghai, China). […] Parameters were measured according to the manufacturer’s instructions and protocols, and optical densities (OD) were assayed at λ = 450 nm. […]

TNBS-induced rat colitis = experiment: Severity of inflammation (macroscopic lesion area by planimetry) in TNBS-induced colitis; assay type: in vivo; details: TNBS group 61.68 ± […]
Method: as §1, §2
The extent of macroscopically apparent inflammation, ulceration and tissue disruption was determined in a randomized manner from the colored images, using proprietary computerized planimetry software which was developed in our laboratory (Stat_2_1_1, Szeged, Hungary) and is based on planimetrics. The area of macroscopically visible mucosal damage was calculated and expressed as a % of the total studied 8 cm colonic segment.

HMGB1 = experiment: Western blot of HMGB1 expression in colon, TNBS colitis; assay type: in vivo, rat; details: TNBS group 1.75 ± 0.165
Method: as §3
(§5) In total, 30 mg from each powdered sample was measured and suspended in RIPA buffer (Merck Millipore, Burlington, MA, USA) supplemented with phenylmethylsulfonyl fluoride (PMSF) (Sigma-Aldrich, Budapest, Hungary); 1/10 of the final volume. […] The supernatant was collected and protein concentration was determined by using a Bradford assay and bovine serum albumin as a standard. […] Results were analyzed using Quantity One Software version 4.5 (Bio-Rad Laboratories, Hercules, CA, USA). […]

iNOS = experiment: Western blot of iNOS expression in colon, TNBS colitis; assay type: in vivo, rat
Method: as §3, §5

[2] = system: heme oxygenase enzyme (HO); experiment: Heme oxygenase activity (bilirubin formation) in colon, TNBS colitis; assay type: in vivo, rat; details: TNBS group 0.26 ± 0.03
Method: as §1, §2

sigma-1 receptor (σ1R) [3] = experiment: Western blot of sigma-1 receptor expression in colon, TNBS colitis; assay type: in vivo, rat
Method: as §3, §5

NF-κB p65 subunit = experiment: Western blot of NF-κB p65 expression in colon, TNBS colitis; assay type: in vivo, rat; details: TNBS group 0.83 ± 0.09
Method: as §3, §5

eNOS = eNOS levels in colon by ELISA, TNBS colitis; assay type: in vivo, rat; details: FLV 1 mg/kg i.c.; TNBS group 2.62 ± 0.126
Method: as §3, §4

UCHL-1 = experiment: Western blot of UCHL-1 expression in colon, TNBS colitis; assay type: in vivo, rat; details: FLV 1 mg/kg i.c.; TNBS group 1.23 ± 0.16
Method: as §3, §5

sigma-1 receptor (σ1R) [4] = target: T1, sigma-1 receptor (σ1R) (Rattus norvegicus, UniProt Q9R0C9); experiment: [3H](+)-pentazocine saturation binding in rat colon membranes; details: TNBS-induced colitis rat colon membranes after 1 mg/kg FLV administration (TNBS + FLV)
T1 construct: from tissue; host or cells: rat colon membrane homogenate (male Wistar–Harlan rats; control, TNBS, 50% EtOH, TNBS + FLV treated)
Method: The homogenate was centrifuged at 17,000× g for 10 min (4 °C).
The incubation was terminated by diluting the samples with an ice-cold wash buffer (50 mM of Tris–HCl, pH 8.0), followed by repeated washing and rapid filtration through Whatman GF/B glass fiber filters (Whatman Ltd., Maidstone, UK) presoaked with 0.1% polyethyleneimine. Filtration was performed with a 24-well Brandel Cell Harvester (Gaithersburg, MD, USA). Filters were air-dried and immersed into Ultima Gold MV scintillation cocktail, and then radioactivity was measured with a TRI-CARB 2100TR liquid scintillation analyzer (Packard, Perkin Elmer, Waltham, MA, USA).
All data are presented as mean ± SEM. […] In competition binding studies, the inhibitory constants (Ki) were calculated from the inflection points of the displacement curves using nonlinear least-square curve fitting and the Cheng–Prusoff equation, Ki = EC50/(1 + [ligand]/Kd).

T1 sequence (Q9R0C9 whole entry): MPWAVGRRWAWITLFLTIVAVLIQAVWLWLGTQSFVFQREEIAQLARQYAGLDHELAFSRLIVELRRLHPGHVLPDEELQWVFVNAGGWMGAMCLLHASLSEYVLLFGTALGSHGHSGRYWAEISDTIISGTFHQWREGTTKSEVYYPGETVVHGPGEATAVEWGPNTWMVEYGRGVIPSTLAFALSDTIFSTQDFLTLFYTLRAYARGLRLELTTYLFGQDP

CN1CCN(CCc2ccc(Cl)c(Cl)c2)CC1 [BD1063]
MPO activity vs. TNBS group ([1]; BD1063 0.1 mg/kg i.c.): didn’t affect the activity of the MPO
IL-6 levels vs. TNBS group (IL-6; BD1063 0.1 mg/kg i.c.): didn’t affect IL-6 levels
Severity of inflammation (area of mucosal damage, % of 8 cm colonic segment) (TNBS-induced rat colitis; 0.1 mg/kg BD1063 i.c. once a day): 76.77 ± 2.52%
HMGB1 expression (normalized to β-actin) (HMGB1; BD1063 0.1 mg/kg i.c.): 1.305 ± 0.044 relative expressions
iNOS expression vs. TNBS group (iNOS; BD1063 0.1 mg/kg i.c.): did not alter the expression of iNOS
HO enzyme activity ([2]; BD1063 0.1 mg/kg i.c.): 0.40 ± 0.04 nmol bilirubin/h/mg protein
σ1R expression vs. TNBS group (sigma-1 receptor (σ1R) [3]; BD1063 0.1 mg/kg i.c.): didn’t affect the expression of the receptor
NF-κB p65 subunit expression (normalized to β-actin) (NF-κB p65 subunit; BD1063 0.1 mg/kg i.c.): 0.48 ± 0.03 relative expression

COCCCC/C(=N\OCCN)c1ccc(C(F)(F)F)cc1 [FLV, Fluvoxamine]
MPO activity ([1]; FLV 1 mg/kg i.c., TNBS group 42653.4 ± 3220.24): 25021.2 ± 2554.66 uU/mg protein
IL-6 levels in colon (IL-6; FLV 1 mg/kg i.c., TNBS group 60.48 ± 4.55): 30.53 ± 4.10 ng/L
Severity of inflammation (area of mucosal damage, % of 8 cm colonic segment) (TNBS-induced rat colitis; 0.1 mg/kg FLV i.c. once a day, 72 h after TNBS): 41.23 ± 5.76%
Severity of inflammation (area of mucosal damage, % of 8 cm colonic segment) (TNBS-induced rat colitis; 1 mg/kg i.c. once a day, 72 h after TNBS): 28.29 ± 2.53%
eNOS levels (eNOS): 4.21 ± 0.66 relative expression
HMGB1 expression (normalized to β-actin) (HMGB1; FLV 1 mg/kg i.c.): 1.264 ± 0.07 relative expressions
UCHL-1 expression (normalized to β-actin) (UCHL-1): 2.104 ± 0.13 relative expression
Bmax ± S.E.M., saturation binding (σ1R density) (sigma-1 receptor (σ1R) [4]): 134 ± 14 fmol/mg
iNOS expression (normalized to β-actin) (iNOS; FLV 1 mg/kg i.c., TNBS group 0.53 ± 0.02): 0.255 ± 0.11 relative expression
HO enzyme activity ([2]; FLV 1 mg/kg i.c.): 0.40 ± 0.03 nmol bilirubin/h/mg protein
σ1R expression (normalized to β-actin) (sigma-1 receptor (σ1R) [3]; FLV 1 mg/kg i.c., TNBS group 0.326 ± 0.05): 0.72 ± 0.083 relative expression
NF-κB p65 subunit expression (normalized to β-actin) (NF-κB p65 subunit; FLV 1 mg/kg i.c.): 0.52 ± 0.04 relative expression

O=C(O)c1cc(/N=N/c2ccc(S(=O)(=O)Nc3ccccn3)cc2)ccc1O [SASP, Sulfasalazine]
Severity of inflammation (area of mucosal damage, % of 8 cm colonic segment) (TNBS-induced rat colitis; positive control, 2 × 25 mg/kg per os): 35.78 ± 2.83%

— article PMC7312485, “Lessons on the Sigma-1 Receptor in TNBS-Induced Rat Colitis: Modulation of the UCHL-1, IL-6 Pathway” (International Journal of Molecular Sciences, 2020)
